Test results from article PMC10451632, “Site Mutation Improves the Expression and Antimicrobial Properties of Fungal Defense” (Antibiotics, 2023).
Values after ≈ are worked out from the molar mass of the structure shown. Like-named read-outs stand apart in the source and are kept apart here. Bridge positions count the residues as written; N and C are the ends. Peptide text beside a SMILES is read from it.

How the values were obtained:
S. aureus ATCC 43300 [1] = assay: Membrane permeability, PI staining by FACS; assay type: cell-based, Staphylococcus aureus; conditions: 2× MIC, 10^8 CFU/mL, 37 °C
Protocol: Figure 8 In vitro antimicrobial analysis of PN7. (A): Time-kill curve of PN7, Plectasin, and vancomycin against S. aureus ATCC. All experiments were performed in triplicate. (B): The PAE of 1×, 2× and 4× MIC of PN7 and vancomycin against S. aureus ATCC 43300 (the MIC values of PN7 and vancomycin against S. aureus ATCC 43300 were 8 μg/mL and 1μg/mL, respectively). All experiments were performed in triplicate. (C): The morphological influence of PN7 on S. aureus ATCC 43300 was observed by SEM. (D,E): The effects of PN7 (D) and Plectasin (E)) on membrane permeability were analyzed by FACS. The logarithmic phase S. aureus ATCC 43300 cells (10^8 CFU/mL) were incubated with or without 2× MIC peptide solutions at 37 °C at different times. All experiments were performed in triplicate. Ple stands for the Plectasin treatment group, Van stands for the vancomycin treatment group, and CK stands for the untreated group. TEXT PRINTED IN THE PICTURE: (D) PN7: 34.4% (2×; 90min); 31.2% (2×; 75min); 30.4% (2×; 60min); 19.2% (2×; 45min); 16.7% (2×; 30min); 1.94% (2×; 15min) | (E) Ple: 32.0% (2×; 90min); 27.4% (2×; 75min); 25.2% (2×; 60min); 12.8% (2×; 45min); 12.0% (2×; 30min); 2.11% (2×; 15min) DOUBTS OF THE COPYIST ABOUT THIS PICTURE: Panels D and E: the picture prints no measure for the percentages, only labels such as "2×PN7-90min: 34.4%" / Panels D and E: "CK: 0.54%" is the untreated control, not a substance, and was left out
The fluorescent dye propidium iodide (PI; Solarbio, Beijing, China) was used to detect the effect of PN7 on the membrane permeability of Staphylococcus aureus. The test method refers to the descriptions in previous studies.

S. aureus ATCC 43300 [2] = assay: Post antibiotic effect (PAE); assay type: cell-based, Staphylococcus aureus
Text: The post-antibiotic effect reflects the inhibitory effect on the growth of pathogenic bacteria after short contact with drugs, which is related to the strength of the bactericidal activity of drugs. The test method of the PAE of PN7 against S. aureus ATCC 43300 refers to the descriptions in previous studies.

S. aureus ATCC 43300 [3] = assay: SEM morphological observation; assay type: cell-based, Staphylococcus aureus; conditions: 2× MIC, 30 min
Protocol: To further characterize the bactericidal effects of peptide, SEM was used to visualize the morphological changes. S. aureus ATCC 43300 cells were treated with PN7. Cells for SEM were processed as described previously.

E. coli ATCC 25922 = assay: MIC, microtiter broth dilution; assay type: cell-based, Escherichia coli; conditions: MHB, 10^5 CFUs/mL, 16–18 h at 37 °C
Protocol: (§1) The MIC value of PN7 against bacteria was determined by the microtiter broth dilution method. Briefly, bacteria grown to the exponential phase were diluted into MHB; subsequently, 90 μL of bacterial suspension (10^5 CFUs/mL) was mixed with 10 μL of different concentrations of PN7 in a sterilized 96-well microtiter plate (Nunc). MIC values were recorded after incubation for 16–18 h at 37 °C based on the lowest concentrations of peptides in which no visible bacterial growth was observed.

E. coli O157 = assay: MIC, microtiter broth dilution; assay type: cell-based, Escherichia coli; conditions: MHB, 10^5 CFUs/mL, 16–18 h at 37 °C
Protocol: as §1

E. coli CVCC 1515 = assay: MIC, microtiter broth dilution; assay type: cell-based, Escherichia coli; conditions: MHB, 10^5 CFUs/mL, 16–18 h at 37 °C
Protocol: as §1

[4] = Stability in simulated intestinal fluid, MIC read-out; assay type: in vitro ADME
Protocol: The stability of peptide PN7 in SGF, SIF, and 25% or 50% mouse serum was carried out as previously described. A final concentration of 1280 μg/mL PN7 was prepared and incubated at 37 °C and then diluted twice. The MIC was determined.

S. aureus CVCC 546 = assay type: cell-based, Staphylococcus aureus
Protocol: (§2) The experimental operation of the expression of the Plectasin variant in P. pastoris in well plates, shaking flasks, and 5 L level fermentation was performed as referenced in previous studies. Candidates were identified through three different levels of screening. Firstly, a large number of transformants were screened through well plates to induce expression and determined by the inhibition zone assay (against S. aureus ATCC 43300). Secondly, the transformants with obvious inhibition zones were sequenced to obtain protein sequence information, then induced expression at the shake level. The supernatant was collected and purified to obtain the target protein; the anti-Staphylococcus aureus activity of the protein was detected by a MIC assay. Finally, the codons of candidate sequences were optimized, the expression vector was reconstructed, the optimal transformers were obtained, and the high-density cultivation was performed in a 5 L fermenter. The final agent was determined by high protein yield and good activity (Figure 2).
as §1

S. aureus E48 = assay type: cell-based, Staphylococcus aureus
Protocol: as §2, §1

S. aureus ATCC 25923 = assay type: cell-based, Staphylococcus aureus
Protocol: as §2, §1

S. aureus CICC 10473 = assay: MIC, microtiter broth dilution; assay type: cell-based, Staphylococcus aureus; conditions: MHB, 10^5 CFUs/mL, 16–18 h at 37 °C
Protocol: as §1

mouse erythrocytes = assay: Hemolytic activity; assay type: cell-based; conditions: 128 μg/mL; fresh mouse red blood cells; 0.1% Triton X-100 = 100% hemolysis; mean of three biological replicates
Protocol: The hemolytic activity of PN7 was evaluated based on the amount of the released hemoglobin from erythrocyte suspensions of healthy mouse blood. Erythrocyte suspensions treated with 0.1% Triton X-100 and saline were used as 100% hemolysis and negative control, respectively.

[5] = microtiter broth dilution, MHB, 10^5 CFUs/mL, 16–18 h at 37 °C

CC[C@H](C)[C@@H]1NC(=O)[C@H](CO)NC(=O)[C@H](CCCCN)NC(=O)[C@@H]2CSSC[C@@H](C(=O)N[C@@H](Cc3ccc(O)cc3)C(=O)O)NC(=O)[C@H](CCCCN)NC(=O)[C@@H]3CSSC[C@H](NC(=O)[C@H](CCCNC(=N)N)NC(=O)CNC(=O)[C@H](CC(=O)O)NC(=O)[C@H](CC(=O)O)NC(=O)[C@H](CCC(=O)O)NC(=O)[C@H](Cc4ccc(O)cc4)NC(=O)[C@H](Cc4c[nH]c5ccccc45)NC(=O)[C@@H]4CCCN4C(=O)CNC(=O)[C@H](CC(N)=O)NC(=O)[C@@H](NC(=O)CNC(=O)[C@H](Cc4ccccc4)NC(=O)CN)CSSC[C@H](NC(=O)[C@H](Cc4ccc(O)cc4)NC(=O)CNC(=O)CNC(=O)[C@H](CCCCN)NC(=O)[C@H](Cc4ccc(O)cc4)NC(=O)CNC(=O)[C@H](CCCCN)NC1=O)C(=O)N[C@@H](C)C(=O)N[C@@H](CCCCN)C(=O)NCC(=O)NCC(=O)N[C@@H](Cc1ccccc1)C(=O)N[C@@H](C(C)C)C(=O)N3)C(=O)N[C@@H](Cc1c[nH]cn1)C(=O)N[C@@H](CC(N)=O)C(=O)N[C@@H](Cc1c[nH]cn1)C(=O)N2 [PN7] (H-GFGCNGPWYEDDGRCHNHCKSIKGYKGGYCAKGGFVCKCY-OH; disulfide 4-30, 15-37, 19-39 (inferred); N-terminus and C-terminus assumed)
PI-staining percentage of cells (S. aureus ATCC 43300 [1]; 30 min): 16.7%
PI-staining percentage of cells (S. aureus ATCC 43300 [1]; 60 min): 30.4%
PI-staining percentage of cells (S. aureus ATCC 43300 [1]; 90 min): 34.4%
gap of PAE, PN7 versus vancomycin (S. aureus ATCC 43300 [2]; 1× MIC): 12 times
gap of PAE, PN7 versus vancomycin (S. aureus ATCC 43300 [2]; 2× MIC): 3.648 times
gap of PAE, PN7 versus vancomycin (S. aureus ATCC 43300 [2]; 4× MIC): 3.513 times
cell morphology by SEM (S. aureus ATCC 43300 [3]): shrinkage only appears in the cell surface
MIC (E. coli ATCC 25922): >128 µg/mL
MIC (E. coli O157): >128 µg/mL
MIC (E. coli CVCC 1515): >128 µg/mL
activity after incubation with simulated intestinal fluid (SIF) ([4]; 1280 μg/mL PN7, 37 °C, then two-fold dilution, triplicate): abolished the activity
sensitivity to trypsin ([4]; Figure 7E): sensitive to trypsin
MIC (S. aureus CVCC 546; S. aureus 546, purified protein induced by shaking flasks): 4 µg/mL (≈ 0.908 µM)
MIC (S. aureus CVCC 546; [5]): 1 µg/mL (≈ 0.227 µM)
MIC (S. aureus E48; S. aureus E48, purified protein induced by shaking flasks): 4 µg/mL (≈ 0.908 µM)
MIC (S. aureus E48; [5]): 1 µg/mL (≈ 0.227 µM)
MIC (S. aureus ATCC 25923; S. aureus 25923, purified protein induced by shaking flasks): 16 µg/mL (≈ 3.63 µM)
MIC (S. aureus ATCC 25923; [5]): 16 µg/mL (≈ 3.63 µM)
MIC (S. aureus CICC 10473): 4 µg/mL (≈ 0.908 µM)
hemolysis (mouse erythrocytes): 0.19%
